Measured values: US12037324B2, “Biarylmethyl heterocycles” (Université de Montréal, priority 2016, dated 2024)
pEC50: −log10 of the molar value.

Legend:
[1] = target: T1, hAT1R (Homo sapiens, UniProt P30556); assay: cell-based; details: section of the 42nd table ending at r951, example numbering restarts after the DiscoveRx section; read-out: β-arrestin2 EC50
T1 sequence (P30556 1-359): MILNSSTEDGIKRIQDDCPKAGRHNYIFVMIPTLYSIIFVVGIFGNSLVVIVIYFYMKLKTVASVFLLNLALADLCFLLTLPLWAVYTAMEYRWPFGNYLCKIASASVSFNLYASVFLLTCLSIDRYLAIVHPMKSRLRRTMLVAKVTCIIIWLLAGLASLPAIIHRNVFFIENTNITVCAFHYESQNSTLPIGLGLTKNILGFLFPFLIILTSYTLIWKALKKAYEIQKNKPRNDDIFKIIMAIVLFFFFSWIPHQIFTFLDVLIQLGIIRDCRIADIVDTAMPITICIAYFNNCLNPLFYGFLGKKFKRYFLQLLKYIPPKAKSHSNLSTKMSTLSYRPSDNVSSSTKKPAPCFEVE

[2] = target: T2, AGTR1 (Homo sapiens, UniProt P30556); assay: DiscoveRx β-arrestin2 recruitment assay (enzyme complementation, Pathunter CHO-K1 AGTR1 β-arrestin cell line); format: cell-based; details: for DiscoveRx β-arrestin2 Ymax (%): maximal response
T2 construct: host or cells: Pathunter CHO-K1 AGTR1 β-arrestin cell line (CHO-K1)
T2 sequence (P30556 1-359): T1 sequence (P30556 1-359)
Method in brief: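 CHO-K1 cells expressing AGTR1 with β-arrestin2 enzyme-complementation reporter, plated 14-16 h ahead in 1% serum medium, then exposed to compounds for 90 min at 37° C. Chemiluminescence read after 1 h detection. EC50 (agonist) or IC50 (antagonist) from 4-parameter logistic fit; activity as percentage of All maximal effect.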

[3] = target: T1, hAT1R; assay: cell-based; details: agonist mode; for pEC50: read-out: BRET P63 EC50
[4] = target: T1, hAT1R; assay: BRET β-arrestin2 biosensor assay, higher receptor expression (hAT1R 5 ng/well), HEK293 cells; format: cell-based; details: for pEC50: High AT1R Expression
[5] = target: T2, AGTR1; assay: DiscoveRx IP1 accumulation assay (HTRF), agonist mode, Pathunter CHO-K1 AGTR1 β-arrestin cell line; format: cell-based; details: for pEC50: read-out: IP-1 EC50
Method in brief: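 Agonist mode in CHO-K1 AGTR1 β-arrestin cells plated 14-16 h before; compounds at varying concentrations for 90 min at 37° C, IP1 accumulation read by HTRF (D2-conjugate and anti-IP1 cryptate, 20 min room temperature). EC50 from 4-parameter logistic fit; activity given as percentage of maximal AII effect.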

[6] = DiscoveRx β-arrestin2 recruitment

Row | pEC50 [1] | pEC50 [2] | SMILES | BRET P63 Ymax [3] | pEC50 [3] | BRET β-Arrestin2 High AT1R Expression Ymax (%) [4] | pEC50 [4] | IP-1 Ymax (%) [5] | pEC50 [5] | pEC50 [2, 6] | DiscoveRx β-arrestin2 Ymax (%) [2, 6]
1 | 5.91 | < 5.00 | Cc1cnn(-c2ccc(-c3nn[nH]n3)c(-c3ccc(Cn4cnnc4C)cc3)c2)c1 [Example 459, 5-(5-(4-Methyl-1H-pyrazol-1-yl)-4′-((3-methyl-4H-1,2,4-triazol-4-yl)methyl)-[1,1′-biphenyl]-2-yl)-2H-tetrazole] |  |  |  |  |  |  |  | 
2 |  |  | CCc1nc2c(C)cc(C)nc2n1Cc1ccc(-c2cc(-c3cccc(C)c3)ccc2C(=O)O)nc1 [Example 203, 3-(5-((2-ethyl-5,7-dimethyl-3H-imidazo[4,5-b]pyridin-3-yl)methyl)pyridin-2-yl)-3′-methyl-[1,1′-biphenyl]-4-carboxylic acid] | 5.4% | 6.81 | 79.1% | 6.91 | 34.9% | 5.27 | 6.79 | 32.3%
3 |  |  | CCc1nc2c(C)cc(C)nc2n1Cc1cnc(-c2cc(-c3cccc(C)c3)ccc2C(=O)O)nc1 [Example 202, 3-(5-((2-ethyl-5,7-dimethyl-3H-imidazo[4,5-b]pyridin-3-yl)methyl)pyrimidin-2-yl)-3′-methylbiphenyl-4-carboxylic acid] |  | < 4.00 | 52.0% | 5.79 | 5.7% | 5.53 | 5.95 | 19.4%
4 | 6.41 | 6.60 | Cc1ccnc(-c2ccc(-c3nn[nH]n3)c(-c3ccc(Cn4nc(C)nc4C)cc3)c2)c1 [Example 458, 2-(4′-((3,5-Dimethyl-1H-1,2,4-triazol-1-yl)methyl)-6-(2H-tetrazol-5-yl)-[1,1′-biphenyl]-3-yl)-4-methylpyridine] |  |  |  |  |  |  |  | 
5 | 5.71 | 5.73 | Cc1nc(C)n(Cc2ccc(-c3cc(-c4ccccc4)ccc3-c3nn[nH]n3)cc2)n1 [Example 456, 5-(4″-((3,5-Dimethyl-1H-1,2,4-triazol-1-yl)methyl)-[1,1′:3′,1″-terphenyl]-4′-yl)-2H-tetrazole] |  |  |  |  |  |  |  | 
6 |  |  | CCc1nc2c(C)cc(C)nc2n1Cc1ccc(-c2cc(Oc3cc(N)ccn3)ccc2-c2nn[nH]n2)cc1 [Example 249] | 6.6% | 8.02 | 80.3% | 8.10 | 17.6% | 7.15 | 7.62 | 34.2%
7 | 6.00 | 5.94 | Cc1cnn(-c2ccc(-c3nn[nH]n3)c(-c3ccc(Cn4nc(C)nc4C)cc3)c2)c1 [Example 457, 5-(4′-((3,5-Dimethyl-1H-1,2,4-triazol-1-yl)methyl)-5-(4-methyl-1H-pyrazol-1-yl)-[1,1′-biphenyl]-2-yl)-2H-tetrazole] |  |  |  |  |  |  |  | 
8 |  |  | CCc1nc2c(C)cc(C)nc2n1Cc1ncc(-c2cc(-c3cccc(C)c3)ccc2C(=O)O)cn1 [Example 198, 3-(2-((2-ethyl-5,7-dimethyl-3H-imidazo[4,5-b]pyridin-3-yl)methyl)pyrimidin-5-yl)-3′-methylbiphenyl-4-carboxylic acid] | 13.4% | 5.12 | 95.8% | 6.37 | 14.6% | 6.19 | 6.91 | 33.0%
9 |  |  | CCc1nc2c(C)cc(C)nc2n1Cc1ccc(-c2cc(Oc3cncc(OC)c3)ccc2-c2nn[nH]n2)cc1 [Example 261] |  | < 4.00 | 62.3% | 7.40 | 11.5% | 6.11 | 6.86 | 17.3%
10 |  |  | CCc1nc2c(C)cc(C)nc2n1Cc1ccc(-c2cc(-n3cc(C4=CCCC4)nn3)ccc2-c2nnn[nH]2)cc1 [Example 229] |  | < 4.00 | 82.1% | 7.59 | 6.7% | 6.71 | 7.41 | 24.0%
11 |  |  | CCc1nc2c(C)cc(C)nc2n1Cc1ccc(-c2cc(-c3ccc(C(=O)N(C)C)cc3)ccc2C(=O)O)cc1 [Example 185] | 11.7% | 6.35 | 86.7% | 6.83 | 13.8% | 6.69 | 6.86 | 48.9%
12 | 7.48 |  | CCc1nc2c(C)cc(C)nc2n1Cc1ccc(-c2cc(-n3ccc(C(F)(F)F)n3)ccc2-c2nnn[nH]2)cc1 [Example 219] |  |  |  |  | 6.9% | 6.93 | 7.45 | 21.6%
13 |  |  | CCc1nc2c(C)cc(C)nc2n1Cc1ccc(-c2cc(-c3cn(Cc4ccccc4)nn3)ccc2-c2nnn[nH]2)cc1 [Example 238] |  | < 4.00 | 62.6% | 6.55 | 9.6% | 5.90 | 6.70 | 22.4%
14 |  |  | CCc1nc2c(C)cc(C)nc2n1Cc1ccc(-c2cc(Oc3nccs3)ccc2-c2nn[nH]n2)cc1 [Example 252] |  | < 4.00 | 41.4% | 7.53 | 8.8% | 6.84 | 7.46 | 15.8%
15 |  |  | CCc1nc2c(C)cc(C)nc2n1Cc1cnc(-c2cc(-c3cccc(C)c3)ccc2C(=O)O)cn1 [Example 199, 3-(5-((2-ethyl-5,7-dimethyl-3H-imidazo[4,5-b]pyridin-3-yl)methyl)pyrazin-2-yl)-3′-methylbiphenyl-4-carboxylic acid] | 9.6% | 6.24 | 88.5% | 6.65 | 9.3% | 6.15 | 6.56 | 34.2%
16 |  |  | CCc1nc2c(C)cc(C)nc2n1Cc1ccc(-c2cc(-n3cc(CCO)nn3)ccc2-c2nnn[nH]2)cc1 [Example 226] |  | < 4.00 | 35.0% | 6.46 | 6.7% | 6.30 | 6.62 | 17.5%
17 |  |  | CCc1nc2c(C)cc(C)nc2n1Cc1ccc(-c2cc(-c3ccc(C(F)(F)F)cc3)ccc2-c2nn[nH]n2)cc1 [Example 7] |  |  | 60.0% | 7.43 | 9.2% | 7.08 | 7.84 | 21.6%
18 |  |  | CCCCC1=NC2(CCCC2)C(=O)N1Cc1ccc(-c2cc(-c3ccsc3)ccc2-c2nn[nH]n2)cc1 [Example 130] |  |  | 80.0% | 7.58 | 5.9% | 6.97 | 7.66 | 31.2%
19 |  |  | CCc1nc2c(C)cc(C)nc2n1Cc1ccc(-c2cc(-n3ccc4cc(F)ccc43)ccc2-c2nn[nH]n2)cc1 [Example 85] |  |  | 88.3% | 7.98 |  | < 4.00 | 7.74 | 16.9%
20 |  |  | CCc1nc2c(C)cc(C)nc2n1Cc1ccc(-c2cc(-c3ccccc3)ccc2OCC(=O)O)cc1 [Example 69, 2-((4″-((2-ethyl-5,7-dimethyl-3H-imidazo[4,5-b]pyridin-3-yl)methyl)-[1,1′:3′,1″-terphenyl]-4′-yl)oxy)acetic acid] |  |  | 10.3% | 5.82 |  | < 4.00 | 6.42 | 8.5%
21 |  |  | CCc1nc2c(C)cc(C)nc2n1Cc1ccc(-c2cc(-c3cccs3)ccc2-c2nn[nH]n2)cc1 [Example 12] |  |  | 83.6% | 8.05 |  | < 6.00 | 8.20 | 21.4%
22 |  |  | CCCCC1=NC2(CCCC2)C(=O)N1Cc1ccc(-c2cc(-n3ccc4ccccc43)ccc2-c2nn[nH]n2)cc1 [Example 105] |  |  | 58.0% | 7.54 |  | < 4.00 | 7.80 | 31.0%
23 |  |  | CCc1nc2c(C)cc(C)nc2n1Cc1ccc(-c2cc(-c3cccc(C)c3)ccc2C(=O)O)nn1 [Example 200, 3-(6-((2-ethyl-5,7-dimethyl-3H-imidazo[4,5-b]pyridin-3-yl)methyl)pyridazin-3-yl)-3′-methylbiphenyl-4-carboxylic acid] | 4.3% | 5.69 | 54.3% | 5.75 | 11.4% | 5.57 | 6.15 | 25.1%
